Data reported in patent US12084420B2, “Indoline compounds for inhibiting KIF18A” (Volastra Therapeutics, Inc., priority 2021, dated 2024).

Biological target: hKIF18A (1-374) (Homo sapiens (Human), UniProt Q8NI77)
Test: Inhibition of KIF18A microtubule-dependent ATPase activity (ADP-Glo)
Settings: KIF18A microtubule-dependent ATPase activity, biochemical assay

Sequence of hKIF18A (1-374) (Q8NI77 whole entry, looked up): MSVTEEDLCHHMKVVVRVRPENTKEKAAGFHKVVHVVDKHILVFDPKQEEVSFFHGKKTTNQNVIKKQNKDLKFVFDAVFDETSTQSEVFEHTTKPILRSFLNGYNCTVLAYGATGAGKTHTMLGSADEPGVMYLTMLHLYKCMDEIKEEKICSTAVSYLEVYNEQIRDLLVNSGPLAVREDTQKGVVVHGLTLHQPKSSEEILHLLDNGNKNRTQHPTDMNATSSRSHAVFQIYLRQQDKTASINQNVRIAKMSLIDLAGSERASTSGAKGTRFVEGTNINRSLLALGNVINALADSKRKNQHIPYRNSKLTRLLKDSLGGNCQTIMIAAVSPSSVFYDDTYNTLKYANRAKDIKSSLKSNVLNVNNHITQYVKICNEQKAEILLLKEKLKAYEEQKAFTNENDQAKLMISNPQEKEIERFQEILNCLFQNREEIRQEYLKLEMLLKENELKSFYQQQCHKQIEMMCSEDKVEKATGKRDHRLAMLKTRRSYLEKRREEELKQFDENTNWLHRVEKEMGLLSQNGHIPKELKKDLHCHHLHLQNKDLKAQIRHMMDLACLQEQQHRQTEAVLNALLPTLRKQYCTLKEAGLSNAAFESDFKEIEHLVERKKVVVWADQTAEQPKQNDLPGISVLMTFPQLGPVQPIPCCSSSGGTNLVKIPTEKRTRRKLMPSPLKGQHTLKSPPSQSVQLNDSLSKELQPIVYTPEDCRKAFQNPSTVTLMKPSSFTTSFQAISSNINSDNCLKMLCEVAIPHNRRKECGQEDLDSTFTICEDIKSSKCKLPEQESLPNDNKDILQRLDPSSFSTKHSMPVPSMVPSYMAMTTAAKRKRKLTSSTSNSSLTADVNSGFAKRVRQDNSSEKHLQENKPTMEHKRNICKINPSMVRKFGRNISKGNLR
Sequence of hKIF18A (1-374) (Q2XVP4 whole entry partner, looked up): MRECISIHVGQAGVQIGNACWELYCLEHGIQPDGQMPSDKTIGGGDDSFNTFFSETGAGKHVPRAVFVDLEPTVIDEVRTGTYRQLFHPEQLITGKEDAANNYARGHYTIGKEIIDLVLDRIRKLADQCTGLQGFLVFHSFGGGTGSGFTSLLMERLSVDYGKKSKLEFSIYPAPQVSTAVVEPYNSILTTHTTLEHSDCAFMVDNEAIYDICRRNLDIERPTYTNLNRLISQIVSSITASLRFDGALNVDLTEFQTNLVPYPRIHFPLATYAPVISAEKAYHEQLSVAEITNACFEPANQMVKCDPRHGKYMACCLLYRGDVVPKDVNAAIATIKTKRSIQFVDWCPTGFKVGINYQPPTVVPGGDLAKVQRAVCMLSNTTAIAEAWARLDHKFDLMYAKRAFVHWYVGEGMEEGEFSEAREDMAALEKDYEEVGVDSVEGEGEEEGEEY
Sequence of hKIF18A (1-374) (P02554 whole entry partner, looked up): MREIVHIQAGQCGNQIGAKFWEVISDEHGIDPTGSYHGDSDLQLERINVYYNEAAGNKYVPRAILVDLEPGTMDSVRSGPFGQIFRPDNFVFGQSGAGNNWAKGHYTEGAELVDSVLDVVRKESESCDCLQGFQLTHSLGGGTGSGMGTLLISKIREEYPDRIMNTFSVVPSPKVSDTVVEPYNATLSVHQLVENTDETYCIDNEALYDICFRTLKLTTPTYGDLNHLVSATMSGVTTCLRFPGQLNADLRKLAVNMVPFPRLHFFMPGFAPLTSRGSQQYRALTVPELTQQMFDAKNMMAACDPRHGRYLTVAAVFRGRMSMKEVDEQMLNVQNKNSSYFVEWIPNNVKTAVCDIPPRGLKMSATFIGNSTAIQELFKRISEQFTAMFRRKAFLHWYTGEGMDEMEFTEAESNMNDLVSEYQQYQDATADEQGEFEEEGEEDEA

With `CS(=O)(=O)Nc1ccc2c(c1)C1(CCC3(CC3)CC1)CN2C(=O)c1cccc(C(O)C2CCCC2)n1` (centres unmarked) [Compound 317, N-(1″-(6-(cyclopentyl(hydroxy)methyl)picolinoyl)dispiro[cyclopropane-1,1′-cyclohexane-4′,3″-indolin]-5″- yl)methanesulfonamide] the IC50 was 11 nM.

Work on `O=C(c1ccc(C(O)C2CCCC2)o1)N1CC2(CCC3(CC3)CC2)c2cc(NS(=O)(=O)CCO)ccc21` (single isomer, unassigned) [Compound 368a] yielded an IC50 of 3 nM.

For `CS(=O)(=O)Nc1ccc2c(c1)C1(CCC3(CC3)CC1)CN2C(=O)c1cccc([C@@H](O)C2CCC2)c1` (single isomer, unassigned) [Compound 313a], the IC50 was 19 nM.

`CCS(=O)(=O)Nc1ccc2c(c1)C1(CCC3(CC3)CC1)CN2C(=O)c1cccc(S(=O)(=O)NC2CC(F)(F)C2)c1` [Compound 293, N-(3,3-difluorocyclobutyl)-3-(5″- (ethylsulfonamido)dispiro[cyclopropane-1,1′-cyclohexane-4′,3″-indoline]-1″- carbonyl)benzenesulfonamide] showed an IC50 of 17 nM.

`CCC1=CCC2(CC1)CN(C(=O)c1cccc(S(=O)(=O)NC(C)(C)C)c1)c1ccc(NS(C)(=O)=O)cc12` (centres unmarked) [Compound 31, N-(tert-butyl)-3-(4-ethyl-5′-(methylsulfonamido)spiro[cyclohexane-1,3′-indolin]-3-en-1′-carbonyl)benzenesulfonamide] gave an IC50 of 39 nM.

`CC1CCC2(C1)CN(C(=O)c1cccc(S(=O)(=O)NC(C)(C)C)c1)c1ccc(NS(C)(=O)=O)cc12` (centres unmarked) [Compound 252, N-(tert-butyl)-3-(3-methyl-5′-(methylsulfonamido)spiro[cyclopentane-1,3′-indoline]-1′-carbonyl)benzenesulfonamide] gave an IC50 of 34 nM.

For `CC(c1cccc(C(=O)N2CC3(CCC4(CC4)CC3)c3cc(NS(C)(=O)=O)ccc32)c1)N1CCC(F)(F)CC1` (centres unmarked) [Compound 341, N-(1″-(3-(1-(4,4-difluoropiperidin-1-yl)ethyl)benzoyl)dispiro[cyclopropane-1,1′-cyclohexane-4′,3″-indolin]-5″-yl)methanesulfonamide], the IC50 was 25 nM.

`CS(=O)(=O)Nc1ccc2c(c1)C1(CCCCC1)CN2C(=O)c1cccc(S(=N)(=O)C2CCCC2)c1` (centres unmarked) [Compound 49, N-(1′-(3-(cyclopentanesulfonamidoyl)benzoyl)spiro[cyclohexane-1,3′-indolin]-5′-yl)methanesulfonamide] gave an IC50 of 130 nM.

`O=C(c1cccc(S(=O)(=O)N2CCC(F)(F)CC2)c1)N1CC2(CCCC2)c2ccccc21` [Compound 3, (3-((4,4-difluoropiperidin-1-yl)sulfonyl)phenyl)(spiro[cyclopentane-1,3′-indolin]-1′-yl)methanone] showed an IC50 of 1600 nM.

Work on `CC(C)S(=O)(=O)c1cccc(C(=O)N2CC3(CCC4(CC4)CC3)c3cc(NS(C)(=O)=O)ccc32)c1` [Compound 326, N-(1″-(3-(isopropylsulfonyl)benzoyl)dispiro [cyclopropane-1,1′-cyclohexane-4′,3″- indolin]-5″-yl)methanesulfonamide] yielded an IC50 of 50 nM.

`CC1(C)CCN1S(=O)(=O)c1cccc(C(=O)N2CC3(CCC4(CC4)CC3)c3cc(NS(C)(=O)=O)ccc32)c1` [Compound 245, N-(1″-(3-((2,2-dimethylazetidin-1-yl)sulfonyl)benzoyl)dispiro[cyclopropane-1,1′-cyclohexane-4′,3″-indolin]-5″- yl)methanesulfonamide] gave an IC50 of 34 nM.

`CCS(=O)(=O)Nc1ccc2c(c1)C1(CCC3(CC3)CC1)CN2C(=O)c1cccc(S(=O)(=O)NC2CCC2)c1` [Compound 261, N-cyclobutyl-3-(5″- (ethylsulfonamido)dispiro[cyclopropane-1,1′-cyclohexane-4′,3″-indoline]-1″- carbonyl)benzenesulfonamide] gave an IC50 of 9.3 nM.

Compound `CS(=O)(=O)Nc1ccc2c(c1)C1(CCC3(CC3)CC1)CN2C(=O)c1ccc(C(O)C2CC(F)(F)C2)o1` (centres unmarked) [Compound 369, N-(1″-(5-((3,3-difluorocyclobutyl)(hydroxy)methyl)furan-2-carbonyl)dispiro[cyclopropane-1,1′-cyclohexane-4′,3″-indolin]-5″- yl)methanesulfonamide] has an IC50 of 7.1 nM.

Compound `CS(=O)(=O)Nc1ccc2c(c1)C1(CCC3(CC3)CC1)CN2C(=O)c1cccc(C(F)(F)C2CCCC2)c1` [Compound 306, N-(1″-(3-(cyclopentyldifluoromethyl)benzoyl)dispiro[cyclopropane-1,1′-cyclohexane-4′,3″-indolin]-5″- yl)methanesulfonamide] has an IC50 of 33 nM.

`CS(=O)(=O)Nc1ccc2c(c1)C1(CCC3(CC3)CC1)CN2C(=O)c1cccc(C(C#N)C2CCCC2)c1` (centres unmarked) [Compound 339, N-(1″-(3-(cyano(cyclopentyl)methyl)benzoyl)dispiro[cyclopropane-1,1′-cyclohexane-4′,3″-indolin]-5″- yl)methanesulfonamide] showed an IC50 of 24 nM.

Compound `CS(=O)(=O)Nc1ccc2c(c1)C1(CCC3(CC3)CC1)CN2C(=O)c1cccc(S(=O)(=O)CC2CCC2)c1` [Compound 335, N-(1″-(3-((cyclobutylmethyl)sulfonyl)benzoyl)dispiro[cyclopropane-1,1′-cyclohexane-4′,3″-indolin]-5″-yl)methanesulfonamide] has an IC50 of 9.3 nM.

For `CS(=O)(=O)Nc1ccc2c(c1)C1(CCC3(CC3)CC1)CN2C(=O)c1cccc(C(O)C2CCCC2)c1` (centres unmarked) [Compound 165, N-(1″-(3-(cyclopentyl(hydroxy)methyl)benzoyl)dispiro[cyclopropane-1,1′-cyclohexane-4′,3″indolin]-5″- yl)methanesulfonamide], the IC50 was 15 nM.

`CCS(=O)(=O)Nc1ccc2c(c1)C1(CCC(F)(F)CC1)CN2C(=O)c1cc(S(=O)(=O)N2CC3(CCC3)C2)cs1` [Compound 272, N-(1′-(4-((2-azaspiro[3.3]heptan-2-yl)sulfonyl)thiophene-2-carbonyl)-4,4-difluorospiro[cyclohexane-1,3′-indolin]-5′-yl)ethanesulfonamide] was tested, and the IC50 was 38 nM.

Compound `CS(=O)(=O)Nc1ccc2c(c1)C1(CCC3(CC3)CC1)CN2C(=O)c1csc(S(=O)(=O)NC2CCC2)c1` [Compound 291, N-cyclobutyl-4-(5″- (methylsulfonamido)dispiro[cyclopropane-1,1′-cyclohexane-4′,3″-indoline]-1″-carbonyl)thiophene-2-sulfonamide] has an IC50 of 5.8 nM.

With `CS(=O)(=O)Nc1ccc2c(c1)C1(CCC3(CC3)CC1)CN2C(=O)c1cccc(S(=O)(=O)NC2CC23CC3)c1` (centres unmarked) [Compound 225, 3-(5″-(methylsulfonamido)dispiro [cyclopropane-1,1′-cyclohexane-4′,3″- indoline]-1″-carbonyl)-N-(spiro[2.2]pentan-1-yl)benzenesulfonamide] the IC50 was 7.5 nM.

`CC1CN(S(=O)(=O)c2cccc(C(=O)N3CC4(CCCCC4)c4cc(NS(C)(=O)=O)ccc43)c2)CCO1` (centres unmarked) [Compound 107, N-(1′-(3-((2-methylmorpholino)sulfonyl)benzoyl)spiro[cyclohexane-1,3′-indolin]-5′-yl)methanesulfonamide] was tested, and the IC50 was 470 nM.

For `CC(C)NS(=O)(=O)c1cccc(C(=O)N2CC3(CCCCC3)c3cc(NS(C)(=O)=O)ccc32)c1` [Compound 48, N-isopropyl-3-(5′-(methylsulfonamido)spiro[cyclohexane-1,3′-indoline]-1′-carbonyl)benzenesulfonamide], the IC50 was 100 nM.

With `C[C@@H](c1cccc(C(=O)N2CC3(CCC4(CC4)CC3)c3cc(NS(C)(=O)=O)ccc32)c1)N1CCC(F)(F)CC1` (single isomer, unassigned) [Compound 341a] the IC50 was 30 nM.
